Counter-ions that a name gives are not always drawn.
Target: CCR8 (Homo sapiens, UniProt P51685)
Test: Tango assay (Tango-CCR8-Gal4-CHO-K1 cells, CCL1-stimulated, ONE-Glo luminescence)
Conditions: Tango Assay IC50, Inhibition of CCR8 Tango cell in vitro

Sequence of CCR8 (P51685 whole entry, the tested form may be a part): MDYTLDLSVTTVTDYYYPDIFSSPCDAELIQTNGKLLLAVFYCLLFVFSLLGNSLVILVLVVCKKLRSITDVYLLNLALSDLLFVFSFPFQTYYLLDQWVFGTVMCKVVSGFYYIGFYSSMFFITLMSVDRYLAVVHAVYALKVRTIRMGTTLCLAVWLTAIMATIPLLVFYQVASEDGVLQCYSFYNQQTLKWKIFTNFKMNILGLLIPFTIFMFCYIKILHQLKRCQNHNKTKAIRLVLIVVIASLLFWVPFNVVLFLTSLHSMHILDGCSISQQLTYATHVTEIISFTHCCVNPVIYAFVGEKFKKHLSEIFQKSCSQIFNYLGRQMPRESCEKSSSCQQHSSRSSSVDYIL

Row | SMILES | IC50
1 | CCCC(=O)N1CCC(NS(=O)(=O)c2ccc(-c3nc4ccccc4[nH]3)c3ccccc23)CC1 [Compound 107, 4-(1H-benzo[d]imidazol-2-yl)-N-(1-butyrylpiperidin-4-yl)naphthalene-1-sulfonamide] | 0.913 µM
2 | O=S(=O)(NC1CCCCC1)c1ccc(-c2nc3ccccc3[nH]2)cc1 [Compound 108, 4-(1H-benzo[d]imidazol-2-yl)-N-cyclohexylbenzenesulfon-amide] | > 10 µM
3 | O=S(=O)(NC1CCOCC1)c1ccc(-c2nc3ccccc3[nH]2)cc1 [Compound 109, 4-(1H-benzo[d]imidazol-2-yl)-N-(tetrahydro-2H-pyran-4-yl)benzenesulfonamide] | > 10 µM
4 | Cc1ccccc1NC(=O)c1ccc(S(=O)(=O)NC(C)C2CCCCC2)cc1 (centres unmarked) [Compound 111, 4-(N-(1-cyclohexylethyl)sulfam-oyl)-N-(o-tolyl)benzamide] | > 10 µM
5 | Cc1ccccc1NC(=O)c1ccc(S(=O)(=O)N[C@H](C)C2CCN(C(=O)OC(C)(C)C)CC2)cc1C [Compound 112, (R)-tert-butyl 4-(1-(3-methyl-4-(o-tolylcarbamoyl)phenyl-sulfonamido)ethyl)piperi-dine-1-carboxylate] | > 10 µM
6 | Cc1ccccc1NC(=O)c1ccc(S(=O)(=O)N[C@H](C)C2CCNCC2)cc1C [Compound 113A, (R)-2-methyl-4-(N-(1-(piperidin-4-yl)ethyl)sulfamoyl)-N-(o-tolyl)benzamide] | 0.388 µM
7 | CCCC(=O)N1CCC(NS(=O)(=O)c2ccc(Nc3nccc4ccccc34)c3ccccc23)CC1 [Compound 114, N-(1-butyrylpiperidin-4-yl)-4-(isoquinolin-1-ylamino)naphthalene-1-sulfonamide] | > 10 µM
8 | CCCC(=O)N1CCC(NS(=O)(=O)c2ccc(Nc3ncnc4ccccc34)c3ccccc23)CC1 [Compound 115, N-(1-butyrylpiperidin-4-yl)-4-(quinazolin-4-ylamino)naphthalene-1-sulfonamide] | 1.5 µM
9 | CCCC(=O)N1CCC(NS(=O)(=O)c2ccc(Nc3cc(C)ncn3)c3ccccc23)CC1 [Compound 116, N-(1-butyrylpiperidin-4-yl)-4-((6-methylpyrimidin-4-yl)amino)naphthalene-1-sulfonamide] | > 10 µM
10 | CCCC(=O)N1CCC(NS(=O)(=O)c2ccc(Nc3nccc(C)n3)c3ccccc23)CC1 [Compound 117, N-(1-butyrylpiperidin-4-yl)-4-((4-methylpyrimidin-2-yl)amino)naphthalene-1-sulfonamide] | 1.65 µM
11 | CCCC(=O)N1CCC(NS(=O)(=O)c2ccc(N3C(=O)c4ccccc4C3=O)cc2)CC1 [Compound 118, N-(1-butyrylpiperidin-4-yl)-4-(1,3-dioxoisoindolin-2-yl)benzenesulfonamide] | > 10 µM
12 | CCCC(=O)N1CCC(NS(=O)(=O)c2ccc(N)cc2)CC1 [Compound 119, 4-amino-N-(1-butyrylpiperidin-4-yl)benzenesulfonamide] | > 10 µM
13 | CCCC(=O)N1CCC(NS(=O)(=O)c2ccc(Nc3ncnc4ccccc34)cc2)CC1 [Compound 120, N-(1-butyrylpiperidin-4-yl)-4-(quinazolin-4-ylamino)benzenesulfon-amide] | > 10 µM
14 | Cc1cc(S(=O)(=O)N[C@H](C)C2CCNCC2)ccc1N1C(=O)c2ccccc2C1=O [Compound 122A, (R)-4-(1,3-dioxoisoindolin-2-yl)-3-methyl-N-(1-(piperidin-4-yl)ethyl)benzenesulfon-amide hydrochloride] | > 10 µM
15 | Cc1ccccc1C(=O)Nc1ccc(S(=N)(=O)NC(C)C2CCCCC2)c2ccccc12 (centres unmarked) [Compound 123, N-(4-(N-(1-cyclohexylethyl)sulfamimidoyl)naphthalen-1-yl)-2-methylbenzamide] | 0.0034 µM
16 | Cc1ccccc1C(=O)Nc1ccc(S(=O)(=O)NC(C)c2ccccc2N)c2ccccc12 (centres unmarked) [Compound 124, N-(4-(N-(1-(2-aminophenyl)ethyl)sul-famoyl)naphthalen-1-yl)-2-methylbenzamide] | 0.832 µM
17 | CC(=O)Nc1ccccc1C(C)NS(=O)(=O)c1ccc(NC(=O)c2ccccc2C)c2ccccc12 (centres unmarked) [Compound 125, N-(4-(N-(1-(2-acetamidophenyl)ethyl)sulfamoyl)naphthalen-1-yl)-2-methylbenzamide] | > 10 µM
18 | Cc1ccccc1C(=O)Nc1ccc(S(=O)(=O)NC(C)CC2CCNCC2)c2ccccc12 (centres unmarked) [Compound 126, 2-methyl-N-(4-(N-(1-(piperidin-4-yl)propan-2-yl)sulfamoyl)naphtha-len-1-yl)benzamide] | 0.133 µM
19 | Cc1ccccc1C(=O)Nc1ccc(S(=O)(=O)NC(C)CC2CCN(C(=O)OC(C)(C)C)CC2)c2ccccc12 (centres unmarked) [Compound 127, tert-butyl 4-(2-(4-(2-methylbenzamido)naphthalene-1-sulfonamido)propyl) piperidine-1-carboxylate] | 0.575 µM
20 | Cc1ccccc1C(=O)Nc1ccc(S(=O)(=O)NC(C)C=C2CCCCC2)c2ccccc12 (centres unmarked) [Compound 130, N-(4-(N-(1-cyclohexylidene-propan-2-yl)sulfamoyl)naphtha-len-1-yl)-2-methylbenzamide] | 0.01 µM
21 | Cc1ccccc1C(=O)Nc1ccc(S(=O)(=O)NC(C)C23CCN(CC2)CC3)c2ccccc12 (centres unmarked) [Compound 131, 2-methyl-N-(4-(N-(1-(quinuclidin-4-yl)ethyl)sulfamoyl)naphthalen-1-yl)benzamide] | 0.303 µM
22 | Cc1ccccc1C(=O)Nc1ccc(S(=O)(=O)NC(C)C23CCC(CC2)CC3)c2ccccc12 (centres unmarked) [Compound 132, N-(4-(N-(1-(bicyclo[2.2.2]octan-1-yl)ethyl)sulfamoyl)naphthalen-1-yl)-2-methylbenzamide] | 0.0032 µM
23 | CC(NS(=O)(=O)c1ccc2[nH]c(=O)[nH]c(=O)c2c1)C1CC2CCC1CC2 (centres unmarked) [Compound 133, N-(1-(bicyclo[2.2.2]octan-2-yl)ethyl)-2,4-dioxo-1,2,3,4-tetrahydroquinazoline-6-sulfonamide] | > 10 µM
24 | CC(NS(=O)(=O)c1ccc2c(c1)C(=O)NCC2)C1CC2CCC1CC2 (centres unmarked) [Compound 134, N-(1-(bicyclo[2.2.2]octan-2-yl)ethyl)-1-oxo-1,2,3,4-tetrahydroisoquinoline-7-sulfonamide] | > 10 µM
25 | CC(NS(=O)(=O)c1ccc2c(c1)C(=O)NCCC2)C1CC2CCC1CC2 (centres unmarked) [Compound 135, N-(1-(bicyclo[2.2.2]octan-2-yl)ethyl)-1-oxo-2,3,4,5-tetrahydro-1H-benzo[c]azepine-8-sulfonamide] | > 10 µM
26 | CC(NS(=O)(=O)c1ccc2[nH]c(=O)cnc2c1)C1CC2CCC1CC2 (centres unmarked) [Compound 136, N-(1-(bicyclo[2.2.2]octan-2-yl)ethyl)-2-oxo-1,2-dihydroquinoxaline-6-sulfonamide] | > 10 µM
27 | CC(NS(=O)(=O)c1ccc2c(c1)C(=O)NC2=O)C1CC2CCC1CC2 (centres unmarked) [Compound 137, N-(1-(bicyclo[2.2.2]octan-2-yl)ethyl)-1,3-dioxoisoindoline-5-sulfonamide] | > 10 µM
28 | CC(NS(=O)(=O)c1ccc2cnccc2c1)C1CC2CCC1CC2 (centres unmarked) [Compound 139, N-(1-(bicyclo[2.2.2]octan-2-yl)ethyl)isoquinoline-6-sulfonamide] | > 10 µM

Results, then the compound that gave them:

Row | IC50 | SMILES
29 | > 10 µM | CC(NS(=O)(=O)c1cccc(C(=O)O)c1)C1CCCCC1 (centres unmarked) [Compound 140, 3-(N-(1-cyclohexylethyl)sul-famoyl)benzoic acid]
30 | > 10 µM | CC(NS(=O)(=O)c1ccc(F)c(C(=O)O)c1)C1CCCCC1 (centres unmarked) [Compound 141, 5-(N-(1-cyclohexylethyl)sul-famoyl)-2-fluorobenzoic acid]
31 | > 10 µM | Cc1c(C(=O)O)cccc1S(=O)(=O)NC(C)C1CC2CCC1CC2 (centres unmarked) [Compound 142, 3-(N-(1-(bicyclo[2.2.2]octan-2-yl)ethyl)sulfamoyl)-2-methylbenzoic acid]
32 | > 10 µM | Cc1c(C(=O)O)cccc1S(=O)(=O)NC(C)C1CCCCC1 (centres unmarked) [Compound 143, 3-(N-(1-cyclohexylethyl)sul-famoyl)-2-methylbenzoic acid]
33 | 2.1 µM | CC(NS(=O)(=O)c1ccc2nc(Cc3ccccc3)[nH]c2c1)C1CCCCC1 (centres unmarked) [Compound 144, 2-benzyl-N-(1-cyclohexylethyl)-1H-benzo[d]imidazole-6-sulfonamide]
34 | 0.87 µM | CC(NS(=O)(=O)c1ccc2nc(Nc3ccccc3)[nH]c2c1)C1CCCCC1 (centres unmarked) [Compound 145, N-(1-cyclohexylethyl)-2-(phenylamino)-1H-benzo[d]imidazole-6-sulfonamide]
35 | 0.613 µM | CC(NS(=O)(=O)c1ccc(-c2[nH]nnc2-c2ccccc2)c2ccccc12)C1CCCCC1 (centres unmarked) [Compound 148, N-(1-cyclohexylethyl)-4-(4-phenyl-1H-1,2,3-triazol-5-yl)naphthalene-1-sulfonamide]
36 | > 10 µM | CC(NS(=O)(=O)c1ccc(-c2cc3ccccc3[nH]2)c2ccccc12)C1CCCCC1 (centres unmarked) [Compound 149, N-(1-cyclohexylethyl)-4-(1H-indol-2-yl)naphthalene-1-sulfonamide]
37 | > 10 µM | CC(NS(=O)(=O)c1ccc(-c2nn[nH]n2)c2ccccc12)C1CCCCC1 (centres unmarked) [Compound 150, N-(1-cyclohexylethyl)-4-(2H-tetrazol-5-yl)naphthalene-1-sulfonamide]
38 | 1.36 µM | CC(=O)Nc1ccccc1COc1ccc(S(=O)(=O)NC(C)C2CCCCC2)c2ccccc12 (centres unmarked) [Compound 151, N-(2-(((4-(N-(1-cyclohexylethyl)sulfamoyl)naphthalen-1-yl)oxy)methyl)phenyl)acetamide]
39 | > 10 µM | CC(NS(=O)(=O)c1cccc(N2CCCC2C(=O)O)c1)C1CCCCC1 (centres unmarked) [Compound 152, 1-(3-(N-(1-cyclohexylethyl)sulfam-oyl)phenyl)pyrrolidine-2-carboxylic acid]
40 | > 10 µM | CC(NS(=O)(=O)c1cccc(N2CCCCC2C(=O)O)c1)C1CCCCC1 (centres unmarked) [Compound 153, 1-(3-(N-(1-cyclohexylethyl)sulfam-oyl)phenyl)piperidine-2-carboxylic acid]
41 | > 10 µM | CC(NS(=O)(=O)c1cccc(N2CCC(C(=O)O)C2)c1)C1CCCCC1 (centres unmarked) [Compound 154, 1-(3-(N-(1-cyclohexylethyl)sulfam-oyl)phenyl)pyrrolidine-3-carboxylic acid]
